This passage reports IC50 results from article PMC7717600, “Novel [(N-alkyl-3-indolylmethylene)hydrazono]oxindoles arrest cell cycle and induce cell apoptosis by inhibiting CDK2 and Bcl-2: synthesis, biological evaluation and in silico studies” (Journal of Enzyme Inhibition and Medicinal Chemistry, 2020).

Test [1] relates to A-549. Nature of the test: SRB anti-proliferative assay. The class given is cell-based. The note with it: Homo sapiens, A549; A-549, SRB, mean ± SE of 3. The procedure: Staurosporine, a clinically used antitumor drug, was co-assayed as a reference agent for the experiment.
(§1) Examination of the cytotoxic activity for the target conjugates was carried out in accordance with the SRB colorimetric assay protocol, as described previously.
(§2) In vitro anti-proliferative activity assay
(§3) Cells at a concentration of 0.50 x
(§4) Sulfo-Rhodamine-B stain (SRB) assay.
(§5) cell to the wall of the plate.
(§6) wells were prepared for each individual dose).
(§7) Unbound dye was removed by four

The subject of test [2] is HCT-116. The test is described as follows: SRB anti-proliferative assay. As to conditions: Homo sapiens; HCT-116, SRB, mean ± SE of 3. Type of test: cell-based. The procedure: (§8) All the newly prepared target conjugates (7, 8a–c, 9 and 10a–e) were investigated for the prospective growth inhibitory actions against three different cancer cell lines viz.; A-549, MDA-MB-231, and HCT-116, using the sulforhodamine B colorimetric (SRB) assay. Staurosporine, a clinically used antitumor drug, was co-assayed as a reference agent for the experiment.
as §1, §2, §3, §4, §5, §6, §7

In test [3] the test system is MDA-MB-231. Nature of the test: SRB anti-proliferative assay. The class given is cell-based. The note with it: Homo sapiens; MDA-MB-231, SRB, mean ± SE of 3. The procedure: as §8, §1, §2, §3, §4, §5, §6, §7
The test system of test [4] is CDK1. More on the design: method as in PMID 11439342. As to conditions: CDK1 ref 4; cited from earlier work.
Test [5] concerns the target CDK2 (Homo sapiens, UniProt P24941). As to conditions: CDK2 ref 4; cited from earlier work.
The subject of test [6] is CDK5. The arrangement: method as in PMID 11439342. As to conditions: CDK5 ref 4; cited from earlier work.

SMILES strings stand for the structures.

The term IC50 denotes the concentration that gives 50% inhibition. Regarding `CCn1cc(C=NN=C2C(=O)Nc3ccc(Cl)cc32)c2ccccc21` [Compound 7], the IC50 was found to be 50 ± 3.37 µM in test [1], 19.7 ± 1.28 µM in test [2] and 27.6 ± 1.76 µM in test [3].
In the case of `C=CCn1cc(C=NN=C2C(=O)Nc3ccc(F)cc32)c2ccccc21` [Compound 10b], the figures for the IC50 in test [1], in test [2] and in test [3] were 59.9 ± 3.58 µM, 36.3 ± 2.35 µM and 54 ± 4.17 µM, respectively.
For `C=CCn1cc(/C=N/N=C2\C(=O)Nc3ccc(OC(F)(F)F)cc32)c2ccccc21` [Compound 10e], the IC50 turned out to be 40.2 ± 1.88 µM in test [1], 37.4 ± 2.06 µM in test [2] and 51.8 ± 3.77 µM in test [3].
The like results for `COc1cccc2c1C(=O)c1c(O)c3c(c(O)c1C2=O)C[C@@](O)(C(=O)CO)C[C@@H]3O[C@H]1C[C@H](N)[C@H](O)[C@H](C)O1` [Dox., doxorubicin, reference compound] were, in that order, 2.3 ± 0.17 µM, 3.7 ± 0.24 µM and 4.5 ± 0.29 µM.
For the compound `O=C1Nc2ccccc2/C1=C1/Nc2ccccc2C1=NO` [Indirubin-3′-oxime], the IC50 in test [4] was 0.18 µM; in test [5], 0.5 µM; in test [6], 0.25 µM.
